From ChEMBL document CHEMBL4020737, “Synthesis and cytotoxic activity of new artemisinin hybrid molecules against human leukemia cells” (Bioorg Med Chem, 2017)
Active and inactive are the calls of the source. The calls are words filed in the database; no cut-off is given here.

Assays:
[1] = Resistance index, ratio of IC50 for human CEM/ADR5000 cells to IC50 for human CCRF-CEM cells; assay type: functional
[2] = tested on: ADR5000 cell line; assay: Cytotoxicity against human CEM/ADR5000 cells assessed as reduction in cell viability after 72 hrs by resazurin reduction assay; assay type: functional, cell-based; settings: ADR5000, 72 h
[3] = tested on: CCRF-CEM; assay: Cytotoxicity against human CCRF-CEM cells assessed as reduction in cell viability after 72 hrs by resazurin reduction assay; assay type: functional, cell-based
[4] = tested on: ADR5000 cell line; assay: Cytotoxicity against human CEM/ADR5000 cells assessed as reduction in cell viability at 400 uM after 72 hrs by resazurin reduction assay; assay type: functional, cell-based

Row | SMILES | Ratio IC50 [1] | IC50 [2] | IC50 [3] | Activity [4]
1 | COC(=O)CC[C@@H](C)[C@H]1CC[C@H]2[C@@H]3[C@H](OC(C)=O)C[C@@H]4C[C@@H](NC(=O)C[C@H]5O[C@@H]6O[C@@]7(C)CC[C@H]8[C@H](C)CC[C@@H]([C@H]5C)[C@@]68OO7)CC[C@]4(C)[C@H]3C[C@H](OC(C)=O)[C@]12C | 11.4 | 560 nM | 49 nM | –
2 | COc1cccc2c1C(=O)c1c(O)c3c(c(O)c1C2=O)C[C@@](O)(C(=O)CO)C[C@@H]3O[C@H]1C[C@H](N)[C@H](O)[C@H](C)O1 [DOXORUBICIN] | 536.67 | – | – | –
3 | COC(=O)CC[C@@H](C)[C@H]1CC[C@H]2[C@@H]3[C@H](OC(C)=O)C[C@@H]4C[C@H](NC(=O)CCC(=O)O[C@@H]5O[C@@H]6O[C@@]7(C)CC[C@H]8[C@H](C)CC[C@@H]([C@H]5C)[C@@]68OO7)CC[C@]4(C)[C@H]3C[C@H](OC(C)=O)[C@]12C | 18.2 | 655 nM | 36 nM | –
4 | CC(=O)O[C@H]1C[C@H]2[C@@H]([C@H](OC(C)=O)C[C@@H]3CC(=O)CC[C@@]32C)[C@@H]2CC[C@H]([C@H](C)CCC(=O)OCCC[C@H]3O[C@@H]4O[C@@]5(C)CC[C@H]6[C@H](C)CC[C@@H]([C@H]3C)[C@@]46OO5)[C@@]12C | 37.3 | 7160 nM | 192 nM | –
5 | COC(=O)CC[C@@H](C)[C@H]1CC[C@H]2[C@@H]3[C@H](OC(C)=O)C[C@@H]4C[C@H](OC(=O)CCC(=O)O[C@@H]5O[C@@H]6O[C@@]7(C)CC[C@H]8[C@H](C)CC[C@@H]([C@H]5C)[C@@]68OO7)CC[C@]4(C)[C@H]3C[C@H](OC(C)=O)[C@]12C | 17.9 | 626 nM | 35 nM | –
6 | COC(=O)CC[C@@H](C)[C@H]1CC[C@H]2[C@@H]3[C@H](OC(C)=O)C[C@@H]4C[C@@H](NC(=O)CCC(=O)O[C@@H]5O[C@@H]6O[C@@]7(C)CC[C@H]8[C@H](C)CC[C@@H]([C@H]5C)[C@@]68OO7)CC[C@]4(C)[C@H]3C[C@H](OC(C)=O)[C@]12C | 5.7 | 779 nM | 136 nM | –
7 | C[C@H]1[C@@H](CCCO)O[C@@H]2O[C@@]3(C)CC[C@H]4[C@H](C)CC[C@@H]1[C@@]24OO3 | – | – | – | inactive
8 | COC(=O)CC[C@@H](C)[C@H]1CC[C@H]2[C@@H]3[C@H](OC(C)=O)C[C@@H]4C[C@@H](OC(=O)CCC(=O)O[C@@H]5O[C@@H]6O[C@@]7(C)CC[C@H]8[C@H](C)CC[C@@H]([C@H]5C)[C@@]68OO7)CC[C@]4(C)[C@H]3C[C@H](OC(C)=O)[C@]12C | 18.1 | 1180 nM | 65 nM | –
9 | COC(=O)CC[C@@H](C)[C@H]1CC[C@H]2[C@@H]3[C@H](OC(C)=O)C[C@@H]4C[C@H](NC(=O)C[C@H]5O[C@@H]6O[C@@]7(C)CC[C@H]8[C@H](C)CC[C@@H]([C@H]5C)[C@@]68OO7)CC[C@]4(C)[C@H]3C[C@H](OC(C)=O)[C@]12C | 18.2 | 345 nM | 19 nM | –
10 | COC(=O)CC[C@@H](C)[C@H]1CC[C@H]2[C@@H]3[C@H](OC(C)=O)C[C@@H]4C[C@H](OC(=O)C[C@H]5O[C@@H]6O[C@@]7(C)CC[C@H]8[C@H](C)CC[C@@H]([C@H]5C)[C@@]68OO7)CC[C@]4(C)[C@H]3C[C@H](OC(C)=O)[C@]12C | 41.8 | 1250 nM | 30 nM | –
11 | COC(=O)CC[C@@H](C)[C@H]1CC[C@H]2[C@@H]3[C@H](OC(C)=O)C[C@@H]4C[C@@H](OC(=O)C[C@H]5O[C@@H]6O[C@@]7(C)CC[C@H]8[C@H](C)CC[C@@H]([C@H]5C)[C@@]68OO7)CC[C@]4(C)[C@H]3C[C@H](OC(C)=O)[C@]12C | 46.1 | 1290 nM | 28 nM | –
